Laboratory results published in ChEMBL document CHEMBL1201862, “PubChem BioAssay data set” (2004).
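Following 48 hours of exposure in 96-well plates, responses at five concentrations were used to interpolate endpoints linearly. GI50 marks 50% less growth.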 Activity calls are given as the source filed them. Cut-off read from the data, not from the text of the source: active = GI50 up to about 1.1 µM and inactive = higher.

What was measured:
Test in all cases: growth of human tumour cells (NCI), 48 h
A549 = tested on: A549
ACHN = tested on: ACHN
BT-549 = tested on: BT-549
CAKI-1 = tested on: CAKI-1
COLO 205 = tested on: COLO 205
HCC 2998 = tested on: HCC 2998
HCT-116 = tested on: HCT-116
HCT-15 = tested on: HCT-15
HT-29 = tested on: HT-29
Hs-578T = tested on: Hs-578T
IGROV-1 = tested on: IGROV-1
MCF7 = tested on: MCF7
MDA-MB-231 = tested on: MDA-MB-231
Malme-3M = tested on: Malme-3M
OVCAR-8 = tested on: OVCAR-8
SF-539 = tested on: SF-539
SN12C = tested on: SN12C
T47D = tested on: T47D
U-251 = tested on: U-251
UO-31 = tested on: UO-31

N=C(N)N/N=C/c1cnn(C(=N)N)c1
GI50 (A549): > 100 µM (inactive) | GI50 (ACHN): > 100 µM (inactive) | GI50 (BT-549): > 100 µM (inactive) | GI50 (CAKI-1): > 100 µM (inactive) | GI50 (COLO 205): > 100 µM (inactive) | GI50 (HCC 2998): > 100 µM (inactive) | GI50 (HCT-116): > 100 µM (inactive) | GI50 (HCT-15): > 100 µM | GI50 (HT-29): > 100 µM (inactive) | GI50 (Hs-578T): > 100 µM (inactive) | GI50 (IGROV-1): > 100 µM (inactive) | GI50 (MCF7): > 100 µM (inactive) | GI50 (MDA-MB-231): > 100 µM (inactive) | GI50 (Malme-3M): > 100 µM (inactive) | GI50 (OVCAR-8): > 100 µM (inactive) | GI50 (SF-539): > 100 µM (inactive) | GI50 (SN12C): 63.7 µM (inactive) | GI50 (T47D): > 100 µM (inactive) | GI50 (U-251): 91 µM (inactive) | GI50 (UO-31): > 100 µM (inactive)

CC(C)[Si]1(C(C)C)OCC2OC(n3cnc4c(N)ncnc43)C(N)C2O[Si](C(C)C)(C(C)C)O1 (stereo not given)
GI50 (A549): 5.58 µM (inactive) | GI50 (ACHN): 3.44 µM (inactive) | GI50 (BT-549): 6.41 µM (inactive) | GI50 (CAKI-1): 11 µM (inactive) | GI50 (COLO 205): 5.68 µM (inactive) | GI50 (HCC 2998): 4.79 µM (inactive) | GI50 (HCT-116): 4.14 µM (inactive) | GI50 (HCT-15): 6.9 µM | GI50 (HT-29): 4.6 µM (inactive) | GI50 (Hs-578T): 11.8 µM (inactive) | GI50 (IGROV-1): 7.33 µM (inactive) | GI50 (MCF7): 2.55 µM (inactive) | GI50 (MDA-MB-231): 13.7 µM (inactive) | GI50 (Malme-3M): 17.8 µM (inactive) | GI50 (OVCAR-8): 8.24 µM (inactive) | GI50 (SF-539): 11.6 µM (inactive) | GI50 (SN12C): 10.1 µM (inactive) | GI50 (T47D): 8.15 µM (inactive) | GI50 (U-251): 8.32 µM (inactive) | GI50 (UO-31): 3.47 µM (inactive)

Nc1nccc(Nc2ccc(S(N)(=O)=O)cc2)n1
GI50 (A549): > 100 µM (inactive) | GI50 (ACHN): > 100 µM (inactive) | GI50 (BT-549): > 100 µM (inactive) | GI50 (CAKI-1): > 100 µM (inactive) | GI50 (COLO 205): > 100 µM (inactive) | GI50 (HCC 2998): > 100 µM (inactive) | GI50 (HCT-116): > 100 µM (inactive) | GI50 (HCT-15): > 100 µM | GI50 (HT-29): > 100 µM (inactive) | GI50 (Hs-578T): > 100 µM (inactive) | GI50 (IGROV-1): > 100 µM (inactive) | GI50 (MCF7): > 100 µM (inactive) | GI50 (MDA-MB-231): > 100 µM (inactive) | GI50 (Malme-3M): > 100 µM (inactive) | GI50 (OVCAR-8): > 100 µM (inactive) | GI50 (SF-539): > 100 µM (inactive) | GI50 (SN12C): > 100 µM (inactive) | GI50 (T47D): > 100 µM (inactive) | GI50 (U-251): > 100 µM (inactive) | GI50 (UO-31): > 100 µM (inactive)

COc1cc2c(cc1OCCCCCCCCCCN1C(=O)c3cccc4cccc(c34)C1=O)N=C[C@@H]1CCCN1C2=O
GI50 (A549): 12.4 µM (inactive) | GI50 (ACHN): 10 µM (inactive) | GI50 (BT-549): 6.25 µM (inactive) | GI50 (CAKI-1): 4.43 µM (inactive) | GI50 (COLO 205): 3.52 µM (inactive) | GI50 (HCC 2998): 11.1 µM (inactive) | GI50 (HCT-116): 5.52 µM (inactive) | GI50 (HCT-15): 4.8 µM | GI50 (HT-29): 6.76 µM (inactive) | GI50 (Hs-578T): 6.89 µM (inactive) | GI50 (IGROV-1): 1.59 µM (inactive) | GI50 (MCF7): 2.01 µM (inactive) | GI50 (MDA-MB-231): 3.62 µM (inactive) | GI50 (Malme-3M): 12 µM (inactive) | GI50 (OVCAR-8): 4.95 µM (inactive) | GI50 (SF-539): 1.55 µM (inactive) | GI50 (SN12C): 4.42 µM (inactive) | GI50 (T47D): 4.41 µM (inactive) | GI50 (U-251): 3.37 µM (inactive) | GI50 (UO-31): 7.46 µM (inactive)

CN(CCCNC(=O)c1c2ccc3ccccc3c2nn1C)CCCNC(=O)c1c2ccc3ccccc3c2nn1C
GI50 (A549): 12.4 µM (inactive) | GI50 (ACHN): 11.5 µM (inactive) | GI50 (BT-549): 10.6 µM (inactive) | GI50 (CAKI-1): 1.6 µM (inactive) | GI50 (COLO 205): 1.81 µM (inactive) | GI50 (HCC 2998): 1.87 µM (inactive) | GI50 (HCT-116): 4.76 µM (inactive) | GI50 (HCT-15): 6.93 µM | GI50 (HT-29): 2.53 µM (inactive) | GI50 (Hs-578T): 14.2 µM (inactive) | GI50 (IGROV-1): 8.79 µM (inactive) | GI50 (MCF7): 3.94 µM (inactive) | GI50 (MDA-MB-231): 10.5 µM (inactive) | GI50 (Malme-3M): 3.03 µM (inactive) | GI50 (OVCAR-8): 13.3 µM (inactive) | GI50 (SF-539): 6.24 µM (inactive) | GI50 (SN12C): 12.4 µM (inactive) | GI50 (T47D): 7.62 µM (inactive) | GI50 (U-251): 7.85 µM (inactive) | GI50 (UO-31): 6.47 µM (inactive)

Cc1ccc(S(=O)(=O)OC2C3OC(C)(C)OC3OC2C(c2cc(O)c3c(c2O)C(=O)c2ccccc2C3=O)c2cc(O)c3c(c2O)C(=O)c2ccccc2C3=O)cc1 (stereo not given)
GI50 (A549): > 10 µM (inactive) | GI50 (ACHN): > 10 µM (inactive) | GI50 (BT-549): > 10 µM (inactive) | GI50 (CAKI-1): > 10 µM (inactive) | GI50 (COLO 205): > 10 µM (inactive) | GI50 (HCC 2998): > 10 µM (inactive) | GI50 (HCT-116): > 10 µM (inactive) | GI50 (HCT-15): > 10 µM | GI50 (HT-29): > 10 µM (inactive) | GI50 (Hs-578T): > 10 µM (inactive) | GI50 (IGROV-1): > 10 µM (inactive) | GI50 (MCF7): > 10 µM (inactive) | GI50 (MDA-MB-231): > 10 µM (inactive) | GI50 (Malme-3M): > 10 µM (inactive) | GI50 (OVCAR-8): > 10 µM (inactive) | GI50 (SF-539): > 10 µM (inactive) | GI50 (SN12C): > 10 µM (inactive) | GI50 (T47D): > 10 µM (inactive) | GI50 (U-251): > 10 µM (inactive) | GI50 (UO-31): > 10 µM (inactive)
